≈ marks a conversion by molar mass, not a printed value.
How the values were obtained:
blood glucose level [1] = assay: Hollow suppositories with insulin, blood glucose versus intramuscular injection (set up 2); assay type: in vivo, rabbits; settings: uncoupler in suppository mass (3 mg, 3 mg, 1.5 mg); insulin in physiological saline
Experimental: Therefore experiments were carried out on rabbits. Male rabbits were immobilised in a metal cage allowing free access to the anal region and the auricular arteries of both ears. In these experiments narcosis was not essential. The sampled blood volume was 0.5 ml.
Small hollow suppositories were made with dimensions ± 2 cm, φ 0.5 cm. The suppositories were filled with […] ™ (Novo Nordisk) 100 I.U./ml in the appropriate dilution with physiological saline. The anal region was secured with adhesive tape.
The following concentrations were used 0.1 I.U./kg body weight, 0.5 I.U./kg body weight, 1.0 I.U./kg body weight.
As the content of the suppository was approximately 0.6 ml, 450 µl (at the highest dose) of the Insulin solution was mixed with 150 µl normal saline.
For these experiments Insulin from bovine pancreas (activity 41.67 µg = 1 I.U.) Fluka was solved in 0.6 ml bidistilled water. The experiment was carried out as outlined above.

colon descendens = assay: Temperature increase in ligated colon segment (sample versus reference segment); assay type: in vivo, Guinea pigs
Experimental: While animals are thermally unstable during narcosis special precautions had to be taken to overcome this problem. Guinea pigs (400 g, males) were fasted 12 hours before the experiment. Anaesthesia was induced by intraperitoneal injection of Ethylurethane (0.9 g.kg^-1). The guinea pig was fixed on a thermostated operation table, monitored by a thermosensible detector rectally applied. Heating was carried out by the operation table itself and two lamps located above the animal.
In the evacuated colon descendens two segments were localised. In both segments, later called sample- and reference segment small measuring electrodes were fixed, displaying continuously the absolute temperature until 0.001°C. Two other electrodes linked by a Wheatstone bridge connection were equally located in the two segments. They measure continuously the temperature difference between the two segments.
In both segments a smooth catheter (I.D. 0.3 mm) was fixed, winded several times in the intestinal cavity. In this catheters 100 µl of the reference- and sample solution was injected.
The intestinal cavity was sealed again. This set up enables the injection of solutes at body temperature. The animal was thermally isolated by gauge. After ten minutes, the wheatstone bridge was equilibrated. An injection of 100 µl air evacuates the catheters so injecting the solutions at perfect body temperature.
The electrodes displaying the absolute temperature were calibrated in a thermostatically controlled water bath between 36.0°C and 38.0°C. […] The electrodes measuring the temperature difference were calibrated by two thermostatically controlled water baths with temperature differences between 0.0°C and 2.0°C. The rectal temperature was directly monitored in °C.
• * reference solution: • Krebsolution - TRIS.HCl buffer 0.1 M pH 8.0 (9/1) osmotic pressure equals 0.9 % Sodium Chloride • * Sample solutions : • - Rhein saturated in reference solution.

[2] = test system: paracellular permeability; assay: 99mTc-EDTA transfer from ligated colon segment to kidneys/urine bladder (mucosal permeability); assay type: in vivo, Guinea pigs; settings: for colonic permeability: 99mTc-EDTA in ligated colon segment, one hour, Fig. 2 / Fig. 3; for transfer from lumen to blood of 99mTc-EDTA: after previous administration of the uncoupler
Experimental: Guinea pigs of either sex (250-280 g) were fed for one week with pelleted food containing 0.1% 1,8 dihydroxyanthraquimone. For this purpose the necessary amount of Anthraquinone was solved in ether and sprayed over the pelleted foods. The ether was evaporated. The calculated daily administration of 1,8 dihydroxyantraquinone was 20 mg.
The animals were fasted 6 hours before the experiment in order to empty the proximal colonic segment.
Anaesthesia was induced by peritoneal injection of ethyl urethane (0.9 g.kg^-1) and body temperature was maintained at 37°C by a thermostatically controlled heated table.
A midventral abdominal incision was made and the large intestine exposed.
In this ligated colon segment 0.25 ml ^99mTcEDTA was injected. Immediately the abdominal cavity was closed.
The biodistribution of the labelled complex was visualised by a γ-camera Pho/GAMMA®HP-Nuclear; Chicago fitted with a low energy ([…]) convergating collimator.
After one hour the guinea pigs were killed with chloroform and both kidneys, the ligated colon segment and the liver were isolated. Urine was collected from the urine bladder using a syringe. The activity of the samples was measured by a Gamma-counter (Berthold, Gamma-sample changer BF 5300) positioned on 140 ± 10 keV.
In order to determine the influence of the salicylic acid and dinitrophenol on mucosal permeability, 0.25 ml of salicylic acid was injected in the ligated colon segment of untreated animals. After an exposure time of 30 minutes the labelled ^99mTc-EDTA-complex was injected. The procedure continued as described for 1,8 dihydroxyantraquinone.
The instant kit method of Eckelman and Richards (J. Nucl. Med. 11, 761(1970)) was modified. 5.0 mg of Na2EDTA and 0.5 mg of snCl2.2H20/ml was filtered through a 0.22 µ membrane filter and conserved in 3 ml vacuum serum tubes. The kits were kept at -20°C.
Prior to the experiment 1 ml sterile eluate of a ^99mTc-generator (Sterow™ 99m Byk-Malincrodt) with an activity of 2-10 µ Ci was added to the thawed kit. After mixing the efficiency of the complex formulation was assessed by paper chromatography (Whatman N° 1) using physiological water and methylethylketone as mobile phase. Detection was made with a Berthold Scanner. More than 98% of the present ^99mTc was complexed.
100 mg salicylic acid or dinitrophenol was solved in bidistilled water. Sodium hydroxide N was added until complete dissolution. pH was adjusted on 8.5. Water was added to a volume of 10 ml. Osmolarity was adjusted (275 mOsm/1) by adding 23 and 14 mg sodium chloride respectively.

blood glucose level [3] = assay: Rectal perfusion of insulin, blood glucose versus intramuscular injection (set up 1); assay type: in vivo, guinea pigs and rats; settings: uncoupler added to perfusion, total concentration 0.5 mg
Experimental: The resorption of Insulin has been monitored by the lowering of the blood glucose level versus an intramuscular injection of an equivalent dose. Glucose was monitored while the determination is simple and inexpensive. However, on several experiments the Insulin level was measured by RIA (Radio Immuno Assays) methods.
Initially the resorption of Insulin was monitored following a perfusion on anaesthetised animals. Anaesthesia was induced by abdominal injection of Ethylurethane (0.9 g/kg).
The circulating solution was principally isotonic Sodium chloride (physiological saline) to which the appropriate Insulin was added in order to obtain the required concentrations.
The used Insulin was […]™ (Novo Nordisk); Human Biosynthetic Insulin.
The perfusion itself was executed on a new developed manner in order to allow a perfusion without an operation. Blood was sampled on the jugular vein.
The device used allows an easy rectal application. It allows an exact positioning and an identical length of perfused colon.
The total circulating fluid was 8 ml. As tubing Isoversinic was used. At intervals 50 µl blood was sampled and used for the glucose determinations. These perfusion experiments were carried out on guinea pigs and rats. […]

paracellular route = assay: Blockade by TAP of the 1,8-dihydroxyanthraquinone-increased mucosal permeability (99mTc-EDTA); assay type: in vivo, Guinea pigs; settings: TAP 80 mM pH 6.0 followed by 99mTc-EDTA; Fig. 4; p < 0.01
Experimental: 2,4,6-Triaminopyrimidine (TAP) was used to block the paracellular way. If the resorption of a non resorbable molecule ^99mTc-EDTA complex was enhanced by the addition of a mitochondrial uncoupler and blocked by TAP, then the route followed by the ^99mTc-EDTA complex was unequivocally identified as the paracellular one.
The same materials and methods were used as described in Example 1. However, instead of ^99mc-EDTA TAP was used followed by ^99mTc-EDTA.
100 mg TAP was solved in bidistilled water. The pH was adjusted to 6.0 with HCl 2 N and completed to 10.0 ml. Final concentration was 80 mM. To obtain a physiological osmolarity 16 mg sodium chloride was added.

isolated mitochondria = assay: Generation speed of ATP in isolated mitochondria (Luciferin-Luciferase); assay type: biochemical, Phaseolus aureus; settings: 20 µl Loperamide HCl (5 mg/80 ml water); increasing concentrations DHA; N=15; Fig. 8
Experimental: Mitochondria were isolated from Phaseolus aureus. Beans were allowed to sprout at 28°C during 5 days in the dark. 40 g sprouts were used.
The plant material was homogenised at 3°C with a solution of 0.3M Mannitol, 1 mM Na2EDTA, 0.1% BSA, 0.05% Cysteine. The pH was adjusted to 7.2
During homogenisation 6 N KOH was added to keep the pH at 7.2.
The suspension was centrifuged at 2°C (2000 x g for 15 minutes). The pellet was removed and the supernatant centrifuged again during 20 minutes (8000 x g). The pellet was carefully resuspended in 1 ml of a solution (reaction medium) with 0.3M Mannitol, 10mM phosphate buffer, 10mM KCl, 5mM MgCl2, 0.1% BSA. The pH was adjusted at 7.2.
Mitochondrial quality was assessed by measuring the formation speed of ATP following a ADP injection. ATP was measured by L-Luciferin-Luciferase light emission in the LKB-Luminometer.
The measurement of ATP was carried out in a medium consisting of a 1/1 mixture of reaction medium and Luciferin-Luciferase buffer. The complex composition is : • 200 µl Luciferin-Luciferase solution • 400 µl TRIS.HCl 0.05 M - EDTA 2 mM pH 7.75 • 400 µl reaction medium as explained above • 20 µl mitochondrial suspension • 10 µl Succinate 10 mM pH 7.7 • 20 µl Loperamide HCl (5 mg/80 ml water) or water depending on the experimental set up 1,8 dihydroxyanthraquinone was used in a concentration of 2 mg/100 ml methanol.

[4] = test system: junctions of the colonic mucosa; assay: Blockade of the paracellular route by anti-diarrhoeal drugs (99mTc-EDTA transfer lumen to blood); assay type: in vivo; settings: in combination with DHA; Fig. 5
large intestine = assay: Colon perfusion: secretory effect of rhein (water, sodium, K+) and its antagonism; assay type: in vivo
[5] = test system: monocellular mucosal layer of the guinea-pig colon; assay: ATP content of lyophilised colon mucosa (firefly bioluminescence); assay type: in vivo, Guinea pigs; settings: 3.76 mg rhein in ligated colonic segment
Experimental: The ATP content was measured in the monocellular mucosal layer of the guinea-pig colon.
Guinea pigs with a weight (mean ± 400 g) were fasted 12 hours before the experiments. Anaesthesia was induced by intraperitoneal injection of Ethylurethane (0.9 g.kg^-1).
The segment was filled with 4.0 ml of the solution to be tested. The intestinal cavity was immediately sealed again. After the experiment the colon segment was removed and submerged in liquid Nitrogen. The gut specimen was transferred to the precooled lyophylisator (-80°C, sample -20°C) and lyophilised during 36 hours. Microscopically, the mono cellular mucosa layer was scraped off. One segment, proceeding this way normally yield 1.5 - 2.0 mg lyophilised mucosa cells. 1.000 mg mucosa was weighted carefully on a microbalans and homogenised with 100.00 mg lactose. The ATP level was measured on 3.000 mg of this mixture.
ATP was measured following the firefly-bioluminescence system on a LKB Wallac 1250, fitted with a 1250 display. […]
For the blank experiment 200 µl Luciferine-Luciferase solution was mixed with 500 µl TRIS-EDTA buffer solution. The light emission was measured following the addition of standard amounts of ATP.
3.000 mg of the mucosa/lactose mixture was suspended in 800 µl TRIS-EDTA buffer solution. […] Known quantities of ATP were added.

[6] = Saturation concentration in reference solution; settings: krebs - tris.hcl buffer, pH 8, aqueous buffer
[7] = 100 µl saturated solution in colon segment versus reference segment, Fig. 10

O=C1c2cccc(O)c2C(=O)c2c(O)cccc21 [1,8-dihydroxyanthraquinone]
blood glucose fall, of the effect obtained after intramuscular injection of an identical dose (blood glucose level [1]): ~50%
temperature rise (colon descendens; [7]): 0.70 °C
colonic permeability [2]: remarkable increase of colonic permeability
transfer from lumen to blood of 99mTc-EDTA [2]: significantly enhanced
radioactivity leaked from the colon and concentrated in the urine bladder ([2]; one hour after administration of the radioactive complex, 0.1% in food for one week): ~25%

COc1ccc2c(c1)c(CC(=O)O)c(C)n2C(=O)c1ccc(Cl)cc1 [Indomethacin]
Insulin absorption, of the effect obtained after an intramuscular injection (blood glucose level [3]): ~44%
blood glucose fall, of the effect obtained after intramuscular injection of an identical dose (blood glucose level [1]): ~50%

Nc1cc(N)nc(N)n1 [TAP, 2,4,6-Triaminopyrimidine]
mucosal permeability following a 1,8-dihydroxyanthraquinone administration (paracellular route): nearly completely restored

CN(C)C(=O)C(CCN1CCC(O)(c2ccc(Cl)cc2)CC1)(c1ccccc1)c1ccccc1 [loperamide]
protection against uncoupling effect of DHA on generation speed of ATP (isolated mitochondria): protects mitochondria in vitro against the uncoupling effect of anthraquinones
effect on temperature rise following DHA administration (colon descendens; guinea pig, in vivo): antagonises the temperature rise
transfer of 99mTc-EDTA complex from lumen to blood [4]: no longer transferred from lumen to blood

CN1CC[C@]23c4c5ccc(O)c4O[C@H]2[C@@H](O)C=C[C@H]3[C@H]1C5 [morphine]
K+ concentration (large intestine; in vivo): completely antagonised
effect on the secretory effect of rhein (large intestine; in vivo): counteracted the secretory effect of rhein
effect on the secretory effect of rhein, prior perfusion (large intestine; in vivo): protects the large intestine from the secretory effect of rhein

O=C(O)c1cc(O)c2c(c1)C(=O)c1cccc(O)c1C2=O [rhein]
Insulin absorption, of the effect obtained after an intramuscular injection (blood glucose level [3]): ~44%
blood glucose fall, of the effect obtained after intramuscular injection of an identical dose (blood glucose level [1]): ~50%
initial ATP concentration recovered ([5]; after 60 minutes): 67.1%
initial ATP concentration remaining ([5]; after 90 minutes): 35.9%
temperature rise (colon descendens; [7]): 0.36 °C
solubility [6]: 0.952 µg/mL (≈ 3.35 µM)

O=C(O)c1ccccc1O [salicylic acid]
temperature rise (colon descendens; other tested mitochondrial uncouplers): show the same results
colonic permeability [2]: similar, although less pronounced effect
transfer from lumen to blood of 99mTc-EDTA [2]: significantly enhanced

trigalloylglucose
effect on the secretory effect of rhein (large intestine; perfused after rhein or together with rhein, Fig. 6, Fig. 7): inhibit completely the secretory effect of rhein

Reference: patent publication EP0938338B1, “CARRIER COMPOSITION FOR INFLUENCING THE TIGHT JUNCTION PERMEABILITY” (Ghyssaert, Joris Rosa Michael, priority 1996, dated 1998)
